Source: ChEMBL document CHEMBL5036323, “Discovery of RRx-001, a Myc and CD47 Downregulating Small Molecule with Tumor Targeted Cytotoxicity and Healthy Tissue Cytoprotective Properties in Clinical Development” (J Med Chem, 2021)

Key:
SCC-7 [1] = assay: Antitumor activity against mouse SCC-7 cells implanted in C3H mouse assessed as tumor growth time at 12 mg/kg, ip treated every other day 3 times in total (reference value: 2.8 +/- 0.6 day); type: functional
SCC-7 [2] = assay: Antitumor activity against mouse SCC-7 cells implanted in C3H mouse assessed as tumor growth time delay at 12 mg/kg, ip treated every other day 3 times in total; type: functional
SCC-7 [3] = assay: Antiproliferative activity against mouse SCC-7 cells assessed as cell growth inhibition by CCK8 assay; type: functional, cell-based
UMSCC22B = assay: Antiproliferative activity against human UMSCC22B cells assessed as cell growth inhibition by CCK8 assay; type: functional, cell-based
PANC-1 = assay: Antiproliferative activity against human PANC-1 cells assessed as cell growth inhibition by CCK8 assay; type: functional, cell-based
M21 = assay: Antiproliferative activity against human M21 cells assessed as cell growth inhibition by CCK8 assay; type: functional, cell-based
U-87 MG = assay: Antiproliferative activity against human U87 cells assessed as cell growth inhibition by CCK8 assay; type: functional, cell-based, U-87MG ATCC
RKO = assay: Antiproliferative activity against human RKO cells assessed as cell growth inhibition by CCK8 assay; type: functional, cell-based
HT-29 = assay: Antiproliferative activity against human HT-29 cells assessed as cell growth inhibition by CCK8 assay; type: functional, cell-based
SNB-75 = assay: Antiproliferative activity against human SNB-75 cells assessed as cell growth inhibition by CCK8 assay; type: functional, cell-based
MCF7 = assay: Antiproliferative activity against human MCF7 cells assessed as cell growth inhibition by CCK8 assay; type: functional, cell-based
A498 = assay: Antiproliferative activity against human A498 cells assessed as cell growth inhibition by CCK8 assay; type: functional, cell-based
IMR-32 = assay: Antiproliferative activity against human IMR-32 cells assessed as cell growth inhibition by CCK8 assay; type: functional, cell-based
A549 = assay: Antiproliferative activity against human A549 cells assessed as cell growth inhibition by CCK8 assay; type: functional, cell-based
[4] = Terminal half life in human plasma; type: ADME, cell-free; details: read-out: beta t1/2

With `N[C@@H](CSCC(=O)N1CC([N+](=O)[O-])([N+](=O)[O-])C1)C(=O)O` the Time (SCC-7 [1]) was 3.9 days and the Time (SCC-7 [2]) was 1.1 days.

With `O=C(CBr)N1CCC1` the Time (SCC-7 [1]) was 3.8 days and the Time (SCC-7 [2]) was 1 days.

Compound `C[N+](C)(C)CC(=O)N1CC([N+](=O)[O-])([N+](=O)[O-])C1` has a Time (SCC-7 [1]) of 3.6 days and a Time (SCC-7 [2]) of 0.8 days.

`O=C(CBr)N1CC([N+](=O)[O-])([N+](=O)[O-])C1` [NIBROZETONE] gave a Time (SCC-7 [1]) of 4.8 days, a Time (SCC-7 [2]) of 2 days and an IC50 (SCC-7 [3]) of 1.8 pM. It also gave an IC50 (UMSCC22B) of 2.3 pM, an IC50 (PANC-1) of 2.3 pM and an IC50 (M21) of 2.6 pM. For the same compound, the IC50 (U-87 MG) was 2.7 pM, the IC50 (RKO) was 3 pM and the IC50 (HT-29) was 3.4 pM. The IC50 (SNB-75) was 3.8 pM, the IC50 (MCF7) was 4 pM and the IC50 (A498) was 4.9 pM. It also gave an IC50 (IMR-32) of 5.1 pM, an IC50 (A549) of 6 pM and a half-life [4] of 27.6 min.
